Results reported in US20230322761A1, “DEGRADATION OF BRUTON'S TYROSINE KINASE (BTK) BY CONJUGATION OF BTK INHIBITORS WITH E3 LIGASE LIGAND AND METHODS OF USE” (BEIGENE, LTD., priority 2020, published 2023).

molecular target: T1, BTK (Homo sapiens, UniProt Q06187); experiment: BTK degradation in TMD-8 cells, HTRF assay after 6 h treatment; format: cell-based; conditions: IC50 (DC50) of BTK degradation
T1 construct: endogenous in cells; host or cells: TMD-8 cells
How it was run: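 Remaining BTK was quantified by HTRF in lysates of TMD-8 cells after 6 h exposure to an 8-point, 6-fold compound series (500× stocks in DMSO starting at 1 mM; 0.2% DMSO). Lysis 30 min, antibodies overnight at room temperature, ratio read at 665/620 nm; DC50 fitted with a four-parameter logistic equation.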

T1 sequence (Q06187 whole entry): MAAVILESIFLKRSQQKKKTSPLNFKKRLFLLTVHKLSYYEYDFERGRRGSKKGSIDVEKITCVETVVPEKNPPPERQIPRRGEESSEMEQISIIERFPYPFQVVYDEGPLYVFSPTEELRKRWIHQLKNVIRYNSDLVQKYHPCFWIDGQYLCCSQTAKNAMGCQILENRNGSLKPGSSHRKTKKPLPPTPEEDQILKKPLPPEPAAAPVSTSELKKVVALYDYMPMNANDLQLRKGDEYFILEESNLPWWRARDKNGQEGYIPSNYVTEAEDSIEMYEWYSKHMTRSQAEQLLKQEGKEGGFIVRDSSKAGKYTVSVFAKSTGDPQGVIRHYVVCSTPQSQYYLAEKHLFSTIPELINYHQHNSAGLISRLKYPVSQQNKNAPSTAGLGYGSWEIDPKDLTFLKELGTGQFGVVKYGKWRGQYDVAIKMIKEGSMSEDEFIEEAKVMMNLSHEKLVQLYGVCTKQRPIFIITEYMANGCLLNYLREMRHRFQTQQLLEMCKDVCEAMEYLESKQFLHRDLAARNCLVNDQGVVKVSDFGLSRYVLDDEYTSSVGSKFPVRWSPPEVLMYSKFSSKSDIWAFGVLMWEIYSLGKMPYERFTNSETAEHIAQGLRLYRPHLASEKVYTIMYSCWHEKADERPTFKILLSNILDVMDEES

SMILES	DC50 [nM]
Cc1cc(-c2n[nH]c3ncc(-c4ccc(N5CCN(C6CCC(c7ccc(C8CCC(=O)NC8=O)c(F)c7)C6)CC5)cc4)cc23)ccc1[C@@H](C)NC(=O)c1nc(C(C)(C)C)no1 (stereo partly drawn) [Example 216, 3-(tert-butyl)-N-((1R)-1-(4-(5-(4-(4-(3-(4-(2,6-dioxopiperidin-3-yl)-3-fluorophenyl)cyclopentyl)piperazin-1-yl)phenyl)-1H-pyrazolo[3,4-b]pyridin-3-yl)-2-methylphenyl)ethyl)-1,2,4-oxadiazole-5-carboxamide]	10.5
Cc1cc(-c2n[nH]c3ncc(-c4ccc(N5CCN(CCc6ccc(N7CC(=O)NC7=O)cc6)CC5)cc4)cc23)ccc1[C@@H](C)NC(=O)c1nc(C(C)(C)C)no1 [Example 217, (R)-3-(tert-butyl)-N-(1-(4-(5-(4-(4-(4-(2,4-dioxoimidazolidin-1-yl)phenethyl)piperazin-1-yl)phenyl)-1H-pyrazolo[3,4-b]pyridin-3-yl)-2-methylphenyl)ethyl)-1,2,4-oxadiazole-5-carboxamide]	1960
Cc1cc(-c2n[nH]c3ncc(-c4ccc(N5CCN(CC6CCN(c7ccc(N8CC(=O)NC8=O)cc7)CC6)CC5)cc4)cc23)ccc1[C@@H](C)NC(=O)c1nc(C(C)(C)C)no1 [Example 218, (R)-3-(tert-butyl)-N-(1-(4-(5-(4-(4-((1-(4-(2,4-dioxoimidazolidin-1-yl)phenyl)piperidin-4-yl)methyl)piperazin-1-yl)phenyl)-1H-pyrazolo[3,4-b]pyridin-3-yl)-2-methylphenyl)ethyl)-1,2,4-oxadiazole-5-carboxamide]	19
Cc1cc(-c2n[nH]c3ncc(-c4ccc(C5CCN(CC6CCN(c7ccc(N8CCC(=O)NC8=O)cc7)CC6)CC5)cc4)cc23)c(F)cc1CNC(=O)c1noc(C(C)(C)C)n1 [Example 222, 5-(tert-butyl)-N-(4-(5-(4-(1-((1-(4-(2,4-dioxotetrahydropyrimidin-1(2H)-yl)phenyl)piperidin-4-yl)methyl)piperidin-4-yl)phenyl)-1H-pyrazolo[3,4-b]pyridin-3-yl)-5-fluoro-2-methylbenzyl)-1,2,4-oxadiazole-3-carboxamide]	16.1
Cc1cc(-c2n[nH]c3ncc(-c4ccc(N5CCN(C6CC(c7ccc([C@H]8CCC(=O)NC8=O)cc7)C6)CC5)cc4)cc23)ccc1[C@@H](C)NC(=O)c1noc(C(C)(C)C)n1 (stereo partly drawn) [Example 224, 5-(tert-butyl)-N—((R)-1-(4-(5-(4-(4-((1S,3r)-3-(4-((R)-2,6-dioxopiperidin-3-yl)phenyl)cyclobutyl)piperazin-1-yl)phenyl)-1H-pyrazolo[3,4-b]pyridin-3-yl)-2-methylphenyl)ethyl)-1,2,4-oxadiazole-3-carboxamide]	6.16
Cc1cc(-c2n[nH]c3ncc(-c4ccc(N5CCN(CC6CCN(c7ccc(N8CCC(=O)NC8=O)cc7)CC6)CC5)cc4)cc23)ccc1[C@@H](C)NC(=O)c1nnc(C(C)(C)C)o1 [Example 225, (R)-5-(tert-butyl)-N-(1-(4-(5-(4-(4-((1-(4-(2,4-dioxotetrahydropyrimidin-1(2H)-yl)phenyl)piperidin-4-yl)methyl)piperazin-1-yl)phenyl)-1H-pyrazolo[3,4-b]pyridin-3-yl)-2-methylphenyl)ethyl)-1,3,4-oxadiazole-2-carboxamide]	9.45
Cc1cc(-c2n[nH]c3ncc(-c4ccc(C5CCN(CCc6ccc(C7CCC(=O)NC7=O)cc6)CC5)cc4)cc23)ccc1[C@@H](C)NC(=O)c1noc(C(C)(C)C)n1 (stereo partly drawn) [Example 227, 5-(tert-butyl)-N-((1R)-1-(4-(5-(4-(1-(4-(2,6-dioxopiperidin-3-yl)phenethyl)piperidin-4-yl)phenyl)-1H-pyrazolo[3,4-b]pyridin-3-yl)-2-methylphenyl)ethyl)-1,2,4-oxadiazole-3-carboxamide]	3.93

Continued by falling DC50, values first:

DC50 [nM]	SMILES
3.85	Cc1cc(-c2n[nH]c3ncc(-c4ccc(C5CCN(CC6CCN(c7ccc(N8CCC(=O)NC8=O)cc7)CC6)CC5)cc4)cc23)c(F)cc1CNC(=O)c1nc(C(C)(C)C)no1 [Example 220, 3-(tert-butyl)-N-(4-(5-(4-(1-((1-(4-(2,4-dioxotetrahydropyrimidin-1(2H)-yl)phenyl)piperidin-4-yl)methyl)piperidin-4-yl)phenyl)-1H-pyrazolo[3,4-b]pyridin-3-yl)-5-fluoro-2-methylbenzyl)-1,2,4-oxadiazole-5-carboxamide]
3.04	Cc1cc(-c2n[nH]c3ncc(-c4ccc(N5CCN(CCOc6cccc7c6C(=O)N([C@@H]6CCC(=O)NC6=O)C7)CC5)cc4)cc23)ccc1[C@@H](C)NC(=O)c1nc(C(C)(C)C)no1 [Example 226, 3-(tert-butyl)-N—((R)-1-(4-(5-(4-(4-(2-((2-((R)-2,6-dioxopiperidin-3-yl)-3-oxoisoindolin-4-yl)oxy)ethyl)piperazin-1-yl)phenyl)-1H-pyrazolo[3,4-b]pyridin-3-yl)-2-methylphenyl)ethyl)-1,2,4-oxadiazole-5-carboxamide]
2.23	Cc1c(CNC(=O)c2nc(C(C)(C)C)no2)ccc(-c2n[nH]c3ncc(-c4ccc(C5CCN(CC6CCN(c7ccc(N8CCC(=O)NC8=O)cc7)CC6)CC5)cc4)cc23)c1F [Example 219, 3-(tert-butyl)-N-(4-(5-(4-(1-((1-(4-(2,4-dioxotetrahydropyrimidin-1(2H)-yl)phenyl)piperidin-4-yl)methyl)piperidin-4-yl)phenyl)-1H-pyrazolo[3,4-b]pyridin-3-yl)-3-fluoro-2-methylbenzyl)-1,2,4-oxadiazole-5-carboxamide]
2.02	Cc1cc(-c2n[nH]c3ncc(-c4ccc(N5CCN(CC6CCN(c7ccc(N8CCC(=O)NC8=O)c(C)c7)CC6)CC5)nc4)cc23)ccc1CNC(=O)c1nc(C(C)(C)C)no1 [Example 228, 3-(tert-butyl)-N-(4-(5-(6-(4-((1-(4-(2,4-dioxotetrahydropyrimidin-1(2H)-yl)-3-methylphenyl)piperidin-4-yl)methyl)piperazin-1-yl)pyridin-3-yl)-1H-pyrazolo[3,4-b]pyridin-3-yl)-2-methylbenzyl)-1,2,4-oxadiazole-5-carboxamide]
1.56	Cc1cc(-c2n[nH]c3ncc(-c4ccc(N5CCN(C6CC(c7ccc([C@H]8CCC(=O)NC8=O)cc7)C6)CC5)cc4)cc23)ccc1[C@@H](C)NC(=O)c1noc(C(C)(C)C)n1 (stereo partly drawn) [Example 223, 5-(tert-butyl)-N—((R)-1-(4-(5-(4-(4-((1S,3r)-3-(4-((S)-2,6-dioxopiperidin-3-yl)phenyl)cyclobutyl)piperazin-1-yl)phenyl)-1H-pyrazolo[3,4-b]pyridin-3-yl)-2-methylphenyl)ethyl)-1,2,4-oxadiazole-3-carboxamide]
1.12	Cc1c(CNC(=O)c2noc(C(C)(C)C)n2)ccc(-c2n[nH]c3ncc(-c4ccc(C5CCN(CC6CCN(c7ccc(N8CCC(=O)NC8=O)cc7)CC6)CC5)cc4)cc23)c1F [Example 221, 5-(tert-butyl)-N-(4-(5-(4-(1-((1-(4-(2,4-dioxotetrahydropyrimidin-1(2H)-yl)phenyl)piperidin-4-yl)methyl)piperidin-4-yl)phenyl)-1H-pyrazolo[3,4-b]pyridin-3-yl)-3-fluoro-2-methylbenzyl)-1,2,4-oxadiazole-3-carboxamide]
0.427	Cc1cc(-c2n[nH]c3ncc(-c4ccc(N5CCN(CCc6ccc(C7CCC(=O)NC7=O)cn6)CC5)cc4)cc23)ccc1CNC(=O)c1noc(C(C)(C)C)n1 (centres unmarked) [Example 229, 5-(tert-butyl)-N-(4-(5-(4-(4-(2-(5-(2,6-dioxopiperidin-3-yl)pyridin-2-yl)ethyl)piperazin-1-yl)phenyl)-1H-pyrazolo[3,4-b]pyridin-3-yl)-2-methylbenzyl)-1,2,4-oxadiazole-3-carboxamide]
